Laboratory results as given in the NIST ThermoML archive (doi:10.1021/je0601255).
Numbers after ± are expanded uncertainties.

Key:
[1] = 101 kPa, Liquid; for viscosity: Capillary tube (Ostwald / Ubbelohde) method; for mass density: Pycnometric method
[2] = xn = mol fraction of the nth substance listed; details: 101 kPa, Liquid, x1 = 1; for viscosity: Capillary tube (Ostwald / Ubbelohde) method; for mass density: Pycnometric method

In the case of `C=C(C)C(=O)OCCO` [2-hydroxyethyl 2-methyl-2-propenoate], the viscosity ([1]; 288.15 K) is reported as 8.234 ± 0.19 mPa·s, the mass density ([1]; 288.15 K) is reported as 1074.7 ± 2.4 kg/m3 and the viscosity ([1]; 298.15 K) is reported as 5.784 ± 0.13 mPa·s. The mass density ([1]; 298.15 K) was 1067.1 ± 2.4 kg/m3, the viscosity ([1]; 308.15 K) was 4.194 ± 0.096 mPa·s and the mass density ([1]; 308.15 K) was 1057.7 ± 2.4 kg/m3. For the same compound, the viscosity ([1]; 318.15 K) was 3.181 ± 0.073 mPa·s and the mass density ([1]; 318.15 K) was 1048.6 ± 2.4 kg/m3.
Compound `C=C(C)C(=O)O` [2-methyl-2-propenoic acid] has a viscosity ([1]; 288.15 K) of 1.447 ± 0.031 mPa·s, a mass density ([1]; 288.15 K) of 1018.3 ± 2.1 kg/m3 and a viscosity ([1]; 298.15 K) of 1.267 ± 0.027 mPa·s. For the same compound, the mass density ([1]; 298.15 K) was 1009.5 ± 2.1 kg/m3, the viscosity ([1]; 308.15 K) was 1.078 ± 0.023 mPa·s and the mass density ([1]; 308.15 K) was 999.4 ± 2.1 kg/m3. It also gave a viscosity ([1]; 318.15 K) of 0.945 ± 0.02 mPa·s and a mass density ([1]; 318.15 K) of 989.2 ± 2.1 kg/m3.
Work on `C=C(C)C(=O)OCc1ccccc1` [benzyl methacrylate] yielded a viscosity ([1]; 288.15 K) of 2.871 ± 0.066 mPa·s, a mass density ([1]; 288.15 K) of 1041.2 ± 2.4 kg/m3 and a viscosity ([1]; 298.15 K) of 2.302 ± 0.053 mPa·s. The mass density ([1]; 298.15 K) was 1034.7 ± 2.3 kg/m3, the viscosity ([1]; 308.15 K) was 1.885 ± 0.043 mPa·s and the mass density ([1]; 308.15 K) was 1025.8 ± 2.3 kg/m3. The viscosity ([1]; 318.15 K) was 1.58 ± 0.036 mPa·s and the mass density ([1]; 318.15 K) was 1017 ± 2.3 kg/m3.
With `CCCCO` [butan-1-ol] the viscosity ([1]; 288.15 K) was 3.286 ± 0.07 mPa·s, the mass density ([1]; 288.15 K) was 812.3 ± 1.7 kg/m3 and the viscosity ([1]; 298.15 K) was 2.566 ± 0.055 mPa·s. The mass density ([1]; 298.15 K) was 805.6 ± 1.7 kg/m3, the viscosity ([1]; 308.15 K) was 1.998 ± 0.043 mPa·s and the mass density ([1]; 308.15 K) was 798 ± 1.7 kg/m3. For the same compound, the viscosity ([1]; 318.15 K) was 1.55 ± 0.033 mPa·s and the mass density ([1]; 318.15 K) was 790.5 ± 1.6 kg/m3.
Compound `CCCCO` [butan-1-ol] + C=C(C)C(=O)O has a viscosity ([2]; 288.15 K) of 3.286 ± 0.07 mPa·s, a mass density ([2]; 288.15 K) of 812.3 ± 1.7 kg/m3 and a viscosity ([2]; 298.15 K) of 2.566 ± 0.055 mPa·s. The mass density ([2]; 298.15 K) was 805.6 ± 1.7 kg/m3, the viscosity ([2]; 308.15 K) was 1.998 ± 0.043 mPa·s and the mass density ([2]; 308.15 K) was 798 ± 1.7 kg/m3. It also gave a viscosity ([2]; 318.15 K) of 1.55 ± 0.033 mPa·s and a mass density ([2]; 318.15 K) of 790.5 ± 1.6 kg/m3.
`CCCCO` [butan-1-ol] + C=C(C)C(=O)OCCO showed a viscosity ([2]; 288.15 K) of 3.286 ± 0.07 mPa·s, a mass density ([2]; 288.15 K) of 812.3 ± 1.7 kg/m3 and a viscosity ([2]; 298.15 K) of 2.566 ± 0.055 mPa·s. It also gave a mass density ([2]; 298.15 K) of 805.6 ± 1.7 kg/m3, a viscosity ([2]; 308.15 K) of 1.998 ± 0.043 mPa·s and a mass density ([2]; 308.15 K) of 798 ± 1.7 kg/m3. For the same compound, the viscosity ([2]; 318.15 K) was 1.55 ± 0.033 mPa·s and the mass density ([2]; 318.15 K) was 790.5 ± 1.6 kg/m3.
`CCCCO` [butan-1-ol] + C=C(C)C(=O)OCc1ccccc1 gave a viscosity ([2]; 288.15 K) of 3.286 ± 0.07 mPa·s, a mass density ([2]; 288.15 K) of 812.3 ± 1.7 kg/m3 and a viscosity ([2]; 298.15 K) of 2.566 ± 0.055 mPa·s. It also gave a mass density ([2]; 298.15 K) of 805.6 ± 1.7 kg/m3, a viscosity ([2]; 308.15 K) of 1.998 ± 0.043 mPa·s and a mass density ([2]; 308.15 K) of 798 ± 1.7 kg/m3. It also gave a viscosity ([2]; 318.15 K) of 1.55 ± 0.033 mPa·s and a mass density ([2]; 318.15 K) of 790.5 ± 1.6 kg/m3.
